Values quoted from earlier work, collected in patent publication US20210308436A1, “COMPLETE UPPER RESPIRATORY TRACT CLEANSING SYSTEM AND ITS USE” (priority 2013, published 2021).
Where a name gives a salt, the structure may show the parent alone.

System: perennial allergic rhinitis
Settings: 1% solution in normal saline, once every 48 hours for 4 weeks, vs placebo wash (normal saline only)

## CN[C@@H](C)[C@H](O)c1ccccc1 [ephedrine hydrochloride]
  peak nasal inspiratory flow rates: significant improvement
  symptom scores: significant improvement
